The test system of data set [1] is osteoclast differentiation. Kind of data set: Inhibitory effects on osteoclast differentiation (bone marrow cell/osteoblast co-culture, TRAP staining). In kind it is cell-based, mice. The following applies: for inhibition at 1 µM: Mus musculus, Osteoclast, 168 h, read-out: Inhibition of osteoclast differentiation (%). The protocol: The effect of the benzamidine derivative of the present invention on osteoclast formation and differentiation process was evaluated via co-culture with an osteoblast.
Tibia was aseptically ectomized from 6 to 8-week-old male ddY mice to harvest bone marrow cells by using a syringe (21G, Korea Green Cross). The bone marrow cells were suspended in 5 mL of an α-MEM medium (Gibco BRL Co., supplemented with sodium bicarbonate (2.0 g/L), streptomycin (100 mg/L) and penicillin ([…]), filtered and then sterilized). The harvested cells were centrifuged at 600×g for 5 minutes to collect the whole quantity. To remove the red blood cells in the bone marrow cells, 3 mL of Tris HCl (0.83% NH4Cl, pH 7.5) was added and well mixed. After centrifugation, the numbers of the eukaryotic cells in the harvested bone marrow cells were counted, and then immediately used for a co-culture system.
The progenitor bone and the parietal bone were aseptically ectomized from 1 to 2-day-old neonatal ICR mice, washed with a phosphate butter solution (PBS), and treated with a mixed enzyme solution (0.2% collagenase and 0.1% dispase) six to seven times (10, 10, 10, 20, 20 and 20 min), and then 3 to 6 groups of the cells, in which a large volume of cells having osteoblastic characteristics were contained, were intensively collected, and washed with medium (serum-free α-MEM). The washed cells were cultured in the α-MEM medium containing 10% FBS for 2 to 3 days. After sub-culturing, the collected cells were used for this experiment, and diluted to a concentration of 1×10^6 cells/mL for storage at −70° C.
The benzamidine derivative of the present invention was dissolved in a sterile distilled water or ethanol to be diluted to a desired concentration. The final volume of the sample added to the cell culture medium was set at a ratio of 1:1000.
The bone marrow cells prepared in the above 1-1 and the osteoblast were co-cultured. Both the bone marrow cells (25,000 cells/cm^2) and the osteoblast (10,000 cells/cm^2) were plated in a 96-well plate using α-MEM medium containing FBS, and then cultured with the samples to be tested for 7 days. Differentiation factors, such as dexamethasone (10^−7 M) and vitamin D (10^−8 M), were also co-added to the medium from the first day of cultivation. The medium was changed with a fresh media containing a mixture of the samples and the differentiation factors every 2 to 3 days.
TRAP was used as a marker to measure the matured osteoclast in consideration of its characteristics showing a positive reaction to a TRAP staining solution.
The TRAP staining solution was prepared in such the manner that 5 mg of naphthol AS-MS phosphate (sigma N-4875) as a substrate and 25 mg of a coloring agent (Fast Red Violet LB salt) were dissolved in N,N-dimethylformamide (about 0.5 mL). 50 ml of a 0.1 N […] buffer solution containing 50 mM tartaric acid (pH 5.0) was added thereto, and the mixture was stored in a refrigerator prior to use as a staining solution.
After culturing the cells for 7 days, the medium was removed from the wells, the cells were once washed with PBS, and then fixed with PBS containing 10% formalin for 2 to 5 min. The cells were fixed again in a mixed solution of ethanol and acetone (1/1) for about 1 min, and dried off. The cells were further treated by the TRAP staining solution for 15 minutes, and washed with water and dried off. The osteoclasts with 3 or more nuclei showing a TRAP-positive reaction were counted under a microscopic examination. Each of tests was confirmed at least three times. The inhibitory effect on osteoclast differentiation of each experimental group, relative to negative controls, was expressed as a percentage (%).

For another data set, the system named is MC3T3-E1. Kind of data set: Cytotoxicity test (MTT), MC3T3-E1. The following applies: 10^−6 M, cultured for 72 hrs, in comparison with the control group. In kind it is cell-based. The protocol: (§1) The cytotoxic effect of the benzamidine derivative of the present invention was evaluated by carrying out the experiment described below.
(§2) The test substance was diluted in an appropriate solvent at a concentration of 10^−2 M. This substance was diluted in an appropriate culture medium for the cells used in the cytotoxicity test to a concentration of 10^−6M, and loaded into a 96-well plate in 100 μl per well. The cell lines to be used in the cytotoxicity test were plated on a 96-well plate in a dose of 1.0×10^4 cell/100 μl per well, and cultured for 72 hrs. 25 μl of MTT[3-(4,5-dimethyl-2-thiazolyl)-2,5-diphenyl-2H-tetrazolium bromide] dissolved in PBS (2 mg/mL) were added before 4 hrs of the end of culture. After completion of the reaction, the plates were centrifuged, the medium was discarded and 100 μl of DMSO was added to dissolve formazan. Finally, the absorbance of the developed plates was measured at 540 nm. The survival rates of the cells were expressed as % concentration values in comparison with the control group.

Another data set deals with calvaria. Kind of data set: Cytotoxicity test (MTT), calvaria. It counts as cell-based. As to conditions: 10^−6 M, cultured for 72 hrs, in comparison with the control group. The protocol:
as §1, §2

Another data set deals with HOS. Kind of data set: Cytotoxicity test (MTT), HOS. It counts as cell-based. As to conditions: 10^−6 M, cultured for 72 hrs, in comparison with the control group. The protocol: as §1, §2
Where [2] appears, read: 1 μm, 7 days co-culture, TRAP-positive osteoclasts with 3 or more nuclei, relative to negative controls.

Where two headings read alike, the source gives them in different places.

As usually defined, the inhibition is the relative decrease from the control value, in per cent.

For `COCCNCc1sc(N(C)CCN2CCOCC2)nc1-c1ccc(OCCCCCOc2ccc(C(=N)NO)cc2)cc1` [Example 33, N-hydroxy-4-[5-(4-{5-[(2-methoxy-ethylamino)-methyl]-2-[methyl-(2-morpholin-4-yl-ethyl)-amino]-thiazol-4-yl}-phenoxy)-pentyloxy]-benzamidine], in data set [1], the inhibition at 1 µM is 100%. Also, the Cell survival rate in the data set on MC3T3-E1 came to 104%; in the data set on calvaria, 94%; in the data set with HOS, 110%.

As for `CNc1sc(C)nc1-c1ccc(OCCCCCOc2ccc(C(=N)NO)cc2)cc1` [Example 37, N-hydroxy-4-{5-[4-(2-methyl-5-methylamino-thiazol-4-yl)-phenoxy]-pentyloxy}-benzamidine], the inhibition at 1 µM in data set [1] (setting [2]) came to 83.3%. Moreover, the Cell survival rate is reported as 94.3% in the data set on MC3T3-E1, 92.5% in the data set on calvaria and 105.3% in the data set on HOS.

For `Cc1nc(-c2ccc(OCCCCCOc3ccc(C(=N)NO)cc3)cc2)c(NC(=O)c2ccncc2)s1` [Example 38, N-hydroxy-4-[5-(4-{2-methyl-5-[(pyridine-4-carbonyl)-amino]-thiazol-4-yl}-phenoxy)-pentyloxy]-benzamidine], the inhibition at 1 µM in data set [1] (setting [2]) is 78.6%. For the same molecule, the figures for the Cell survival rate in the data set with MC3T3-E1, in the data set with calvaria and with HOS were 100.0%, 94.6% and 117.6%, respectively.

As for `Cc1nc(-c2ccc(OCCCCCOc3ccc(C(=N)NO)cc3)cc2)c(NC(=O)c2cccnc2)s1` [Example 39, N-hydroxy-4-[5-(4-{2-methyl-5-[(pyridine-3-carbonyl)-amino]-thiazol-4-yl}-phenoxy)-pentyloxy]-benzamidine], the inhibition at 1 µM in data set [1] (setting [2]) was determined as 65.5%. Besides, the Cell survival rate is 95.0% with MC3T3-E1, 86.3% in the data set with calvaria and 92.1% in the data set on HOS.

As for `Cc1nc(-c2ccc(OCCCCCOc3ccc(C(=N)NO)cc3)cc2)c(N(C)C)s1` [Example 41], in data set [1] (setting [2]), the “Inhibition of osteoclast differentiation (%)” value amounted to 94%. The Cell survival rate with MC3T3-E1 worked out at 91%; with calvaria, 93%; in the data set with HOS it was 107%.

Take `CN(C)c1sc(-c2ccccc2)nc1-c1ccc(OCCCCCOc2ccc(C(=N)NO)cc2)cc1` [Example 42, N-hydroxy-4-{5-[4-(5-dimethylamino-2-phenyl-thiazol-4-yl)-phenoxy]-pentyloxy}-benzamidine]: the inhibition at 1 µM in data set [1] (setting [2]) came to 49%. Also, the Cell survival rate in the data set with MC3T3-E1 stood at 91%; with calvaria it was 98%; in the data set with HOS it was 100%.

As to `N=C(NO)c1ccc(OCCCCCOc2ccc(-c3nc(-c4ccccc4)sc3N)cc2)cc1` [Example 45, N-hydroxy-4-{5-[4-(5-amino-2-phenyl-thiazol-4-yl)-phenoxy]-pentyloxy}-benzamidine], the inhibition at 1 µM in data set [1] (setting [2]) was 91%. Also, the Cell survival rate in the data set with MC3T3-E1 turned out to be 81%; in the data set with calvaria, 83%; in the data set with HOS, 104%.

On to `Cc1nc(-c2ccc(OCCCCCOc3ccc(C(=N)NO)cc3)cc2)c(N)s1` [Example 46, N-hydroxy-4-{5-[4-(5-amino-2-methyl-thiazol-4-yl)-phenoxy]-pentyloxy}-benzamidine], for which the inhibition at 1 µM in data set [1] (setting [2]) came out at 88%. The Cell survival rate turned out to be 90% with MC3T3-E1, 95% in the data set with calvaria and 106% with HOS.

On to `N=C(NO)c1ccc(OCCCCCOc2ccc(-c3nc(-c4cccnc4)sc3N)cc2)cc1` [Example 47, N-hydroxy-4-{5-[4-(5-amino-2-pyridin-3-yl-thiazol-4-yl)-phenoxy]-pentyloxy}-benzamidine], for which the inhibition at 1 µM in data set [1] (setting [2]) was found to be 86%. For the same molecule, the Cell survival rate in the data set with MC3T3-E1 is given as 97%; in the data set with calvaria, 99%; in the data set on HOS, 112%.

On to `CNc1nc(-c2ccc(OCCCCCOc3ccc(C(=N)NO)cc3)cc2)c(CN2CCOCC2)s1` [Example 50, N-hydroxy-4-{5-[4-(2-methylamino-5-morpholin-4-ylmethyl-thiazol-4-yl)-phenoxy]-pentyloxy}-benzamidine], for which, in data set [1] (setting [2]), the inhibition at 1 µM came to 100%. Moreover, the results for the Cell survival rate with MC3T3-E1, with calvaria and with HOS were 91%, 90% and 102%, respectively.

Turning to `N=C(NO)c1ccc(OCCCCCOc2ccc(-c3nc(N4CCOCC4)sc3CN3CCOCC3)cc2)cc1` [Example 51, N-hydroxy-4-{5-[4-(2-morpholin-4-yl-5-morpholin-4-ylmethyl-thiazol-4-yl)-phenoxy]-pentyloxy}-benzamidine], the inhibition at 1 µM in data set [1] (setting [2]) was 95%. Moreover, the Cell survival rate in the data set with MC3T3-E1 is 88%; in the data set with calvaria it was 102%; with HOS, 91%.

Regarding `N=C(NO)c1ccc(OCCCCCOc2ccc(-c3nc(N4CCCCC4)sc3N3CCOCC3)cc2)cc1` [Example 52, N-hydroxy-4-{5-[4-(5-morpholin-4-yl-2-piperidin-1-yl-thiazol-4-yl)-phenoxy]-pentyloxy}-benzamidine], the inhibition at 1 µM in data set [1] (setting [2]) turned out to be 91%. Also, the Cell survival rate with MC3T3-E1 worked out at 94%; in the data set on calvaria, 97%; in the data set on HOS, 97%.
